These results are taken from PubChem BioAssay AID602211 (Sanford-Burnham Center for Chemical Genomics, 2012).

The source made the active and inactive calls.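 How the source made its calls: active means mean IC50 at or below 10 µM; inactive means the rest.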

The subject of this assay is H9c2 cardiomyocytes, H2O2 protection, ATPLite viability, 2 h. As to the kind of experiment: protection of H9c2 cardiomyocytes from H2O2 death, dose response, cell-based, ATPLite luminescence, set 2 (AID 602211).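 Further: potency is for protection so actives keep ATP signal up against peroxide killing.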
Usually IC50 stands for the concentration that inhibits the measured activity by half. `COc1cc(-c2cc(C(=O)N3CCN(c4ccccn4)CC3)c3ccccc3n2)cc(OC)c1OC`: the concentration for half-maximal inhibition (IC50) is 3.56 µM.
`Cc1cccc(NC(=O)c2nc[nH]c2C(=O)NCCCCCCNC(=O)c2[nH]cnc2C(=O)Nc2cccc(C)c2)c1`: the IC50 is > 79 µM (inactive).
The value for `Cc1ccccc1N(C(=O)c1snc(C(N)=O)c1N)C(C(=O)NCc1ccccc1)c1ccc(O)cc1` (stereo not drawn) was 6.3 µM; that for `O=c1cc(-c2cccnc2)oc2c1ccc1ccccc12` was 31.2 µM (inactive); that for `CCOC(=O)C1CCN(c2cc3c(cc2NC(=O)c2ccc(OC)c(OC)c2)n(C)c(=O)n3C)CC1` was 1.22 µM.
The value for `CCOCCCNC(=O)CCC(=O)NNc1nc2ccccc2c2nc(-c3ccccc3)nn12` was 42.6 µM (inactive); that for `COc1ccc(NC(=O)c2oc3ccc(S(=O)(=O)N4CCOCC4)cc3c2C)cc1` was 0.815 µM; that for `COc1cc(/C=N/NC(=O)c2cccnc2)ccc1OCC(=O)Nc1ccccc1Cl` was 1.78 µM.
The value for `CCOc1ccc2[nH]c(=O)c(CN(Cc3nnnn3Cc3ccco3)C3CCCCC3)cc2c1` was > 79 µM (inactive).
For `CC(=O)c1cccc(-c2cnc3c(NC=O)cc(-c4ccc(F)cc4)cn23)c1`, the IC50 is 7.76 µM.
The value for `Cc1cc(C)c(C)c(S(=O)(=O)N2CCN(C(=O)c3cc(=O)[nH]c4ccccc34)CC2)c1C` was 0.998 µM; that for `COc1ccc(-c2ccc3c(c2)S(=O)(=O)c2cccc(C(=O)NC[C@@H]4CCCO4)c2C3=O)cc1OC` was 4.98 µM.
On to `Cc1nn(-c2ccccc2)nc1C(=O)Nc1cccc(C(=O)NC2CC2)c1`, for which the IC50 is 4.37 µM.
`COc1cc(NC(=O)c2ccc(-c3cn[nH]c3)c3ccoc23)cc(OC)c1OC`: the half-maximal inhibitory concentration (IC50) is 3.24 µM.
As to `O=C(Nc1cccc(/C=C/c2ccccn2)c1)c1ccc(-n2cncn2)cc1`, the IC50 was 3.13 µM.
The value for `CCOCCn1ccc2c(OCC(=O)Nc3cc(OC)ccc3OC)cccc2c1=O` was 5.23 µM.
The value for `CCOC(=O)N1CCN(C(=O)CSc2nc3ccccc3c(=O)n2-c2ccccc2)CC1` was 18.8 µM (inactive); that for `CC1(C)Cc2c(c(N3CCOCC3)nc3sc4c(NN)ncnc4c23)CS1` was > 79 µM (inactive); that for `O=C(Nc1nc(-c2ccccn2)cs1)c1ccc(-c2ccccc2F)o1` was 3 µM.
The same measure for `COc1cc(/C=C/c2nnc3c4ccccc4ncn23)cc(OC)c1OC`: 4.47 µM.
Regarding `COc1ccc(-c2oc3c(OC)c(OC)c(OC)c(O)c3c(=O)c2OC)cc1OC`, the IC50 was 12.1 µM (inactive).
The same measure for `COc1cccc(-c2nn(-c3ccccc3)cc2C(=O)Nc2nccs2)c1`: 12.8 µM (inactive); for `O=C(CSc1nnc(Cc2cccs2)n1CCc1ccccc1)N1CCCc2ccccc21`: > 79 µM (inactive).
The same measure for `CCOc1ccccc1Nc1nnc(SCc2nnc(-c3cc(OC)c(OC)c(OC)c3)o2)s1`: 9.01 µM; for `COc1ccc(-c2csc(NC(=O)c3ccc(OCC(=O)N4CCOCC4)c(OC)c3)n2)cc1OC`: 2.44 µM.
The value for `C[C@@H]1CN([C@H](C)CO)S(=O)(=O)c2ccc(C#Cc3ccccc3F)cc2O[C@H]1CN(C)C(=O)c1ccc2c(c1)OCO2` was > 79 µM (inactive); that for `COc1cc(-c2cc(NC(C)=O)c3ncc(-c4cc(OC)c(OC)c(OC)c4)n3c2)cc(OC)c1OC` was 3.85 µM.
As for `COc1ccc(-c2ccc3c(c2)S(=O)(=O)c2cccc(C(=O)N4CCN(c5c(Cl)cncc5Cl)CC4)c2C3=O)cc1OC`, the IC50 was 4.27 µM.
The value for `CC1Cc2ccccc2N1C(=O)c1cc2c(=O)n3ccccc3nc2n1C` (stereo not drawn) was > 79 µM (inactive).
The value for `c1cc2[nH]snc2c2nc(C3CC3)nc12` was 7.56 µM; that for `CC(=O)c1ccc(-c2cnc3c(NC=O)cc(-c4cccc(C(=O)N(C)C)c4)cn23)cc1` was 18.9 µM (inactive).
The same measure for `COc1ccc(C=NNc2nc3c([nH]2)c(=O)n(C)c(=O)n3C)cc1`: 5.8 µM; for `Nc1cc2[nH]c(=O)c3ccccc3c2cc1[N+](=O)[O-]`: 5.96 µM.
With `CC(OC(=O)c1cc(-c2cccnc2)nc2ccccc12)C(=O)Nc1ccc2ccccc2c1` (stereo not drawn), the 50% inhibitory concentration (IC50) is 5.97 µM.
As for `CCOC(=O)C1=C(C)NC(C)=C(C(=O)OCC)C1C(=O)OCC(=O)NC(C)C`, the IC50 was 12.9 µM (inactive).
In the case of `COc1cccc(C(=O)CSc2nnc(-c3cc(OC)c(OC)c(OC)c3)o2)c1`, the IC50 was > 79 µM (inactive).
Consider `Cc1c(OCC(=O)NCCN2CCOCC2)ccc2c1oc(=O)c1ccccc12`, for which the IC50 was 5.33 µM.
The value for `COc1ccc(-c2cc(-c3nnc(COC(=O)c4ccncc4)o3)c3ccccc3n2)cc1OC` was 5.89 µM.
For `COc1cccc(-c2cnc3c(NC=O)cc(-c4cccc(C(=O)N(C)C)c4)cn23)c1`, the IC50 is 12.6 µM (inactive).
The value for `C=C1C(C)C2C(Cc3ccccc3)NC(=O)C23OC(=O)/C=C/C(O)CCCC(C)C/C=C/C3C1O` (stereo not drawn) was 0.611 µM.
As to `Cn1c2ccccc2c2cc(/C=N/NC(=O)c3cc(O)ccc3O)ccc21`, the IC50 was > 79 µM (inactive).
The value for `COc1ccccc1CN(C(=O)CNC(=O)c1ccco1)C(C(=O)NCC1CCCO1)c1ccccc1` (stereo not drawn) was 9.67 µM; that for `CC(=O)c1ccc(N2CCN(C(=O)C3CCCN(c4ncnc5c4nc4n5CCCCC4)C3)CC2)cc1` (stereo not drawn) was 2.68 µM; that for `COc1cc(-c2cnc3c(NC=O)cc(-c4ccsc4)cn23)cc(OC)c1OC` was > 79 µM (inactive).
The value for `O=C(N/N=C/c1ccccn1)c1ccc(NC(=O)c2cccc([N+](=O)[O-])c2)cc1` was 7.34 µM; that for `COc1cc(C(=O)N/N=C/c2ccc(OC(=O)c3ccccc3)c(OC)c2)ccc1O` was 6.65 µM; that for `COc1ccc(C(=O)O/N=C(/c2ccccc2)c2ccncc2)cc1OC` was 10.7 µM (inactive).
The same measure for `NS(=O)(=O)c1ccc(CCNc2ccn3nc(-c4ccc(OCCN5CCOCC5)cc4)cc3n2)cc1`: 7.72 µM; for `CC(C)(C)OC(=O)C[C@@H]1C/C=C\C[C@@H](CC(=O)N[C@H](CO)Cc2ccccc2)C(=O)NC[C@@H](c2ccccc2)OC1=O`: 17.6 µM (inactive).
Regarding `O=C(C[C@H]1C/C=C\CC[C@H](Cc2ccc(F)cc2)C(=O)O[C@H](c2ccccc2)CNC1=O)N[C@H](CO)Cc1ccccc1`, the IC50 is > 79 µM (inactive).
The same measure for `O=C(Nc1ccc2c(c1)OCO2)c1cnn2c(C(F)(F)F)cc(-c3ccco3)nc12`: 2.58 µM; for `NC(=O)c1ccc(Nc2nnc(-c3ccc(O)cc3)c3ccccc23)cc1`: 14.7 µM (inactive); for `COc1ccc(-c2ccc3[nH]c4c(c3c2)CCN2C[C@H]3[C@H](C)ON(C)[C@H]3C[C@@H]42)cc1`: > 79 µM (inactive).
Regarding `CCOC(=O)C1CCN(C(=O)c2ccc3c(=O)n4nc(Nc5ccccc5OC)sc4nc3c2)CC1`, the half-inhibitory concentration (IC50) was 6.31 µM.
`O=C(N/N=C\c1ccccn1)c1cccc(C(=O)N/N=C\c2ccccn2)n1`: the IC50 is 2.07 µM.
For the compound `Cc1nc2ccccc2c2c(N)c3ccccc3n12`, the IC50 is 14.6 µM (inactive).
For the compound `O=C(CN1C(=O)C2CC=CCC2C1=O)Nc1nc(-c2ccc(F)cc2)cs1` (stereo not drawn), the IC50 was > 79 µM (inactive).
The same measure for `COc1ccccc1-c1cc(NC(C)=O)c2ncc(-c3cccc(C(C)=O)c3)n2c1`: 11.1 µM (inactive); for `Nc1c(C(=O)NC2CC2)c2nc3ccccc3nc2n1-c1ccc2c(c1)OCO2`: 4.49 µM; for `c1ccc(-c2nc(-n3ccnc3)nc(-n3ccnc3)n2)cc1`: 4.14 µM.
The value for `CC(=O)c1cccc(-c2cnc3c(NC=O)cc(-c4cccc(C(=O)N(C)C)c4)cn23)c1` was 14.9 µM (inactive).
The value for `COc1cc(NC(=O)c2cc3nc(-c4ccccc4)cc(-c4ccccc4)n3n2)cc(OC)c1OC` was 3.87 µM; that for `Cn1c(=O)n(CCc2ccccc2)c(=O)c2c1nc1n2CCCN1Cc1ccccc1` was > 79 µM (inactive); that for `O=C(NCC(=O)N(Cc1cccs1)C(C(=O)NC1CCCC1)c1ccco1)c1cccs1` (stereo not drawn) was 6.37 µM.
As to `N#Cc1cnn2cc(-c3ncc(C(F)(F)F)cc3Cl)cnc12`, the IC50 was 29.9 µM (inactive).
The value for `Cc1ccccc1C1c2[nH]c3ccccc3c2C[C@H]2C(=O)N(c3ccccc3C(=O)NCCCN3CCOCC3)C(=O)N12` (stereo partly drawn) was 17.2 µM (inactive); that for `COc1cccc(NC(=O)c2oc3ccc(S(=O)(=O)N4CCOCC4)cc3c2C)c1` was 1.98 µM; that for `O=C(N/N=C/c1ccc2c(c1)OCO2)c1ccc(NC(=O)c2ccccc2Cl)cc1` was 8.05 µM.
The same measure for `COc1cc(/C=N/NC(=O)NC23CC4CC(CC(C4)C2)C3)ccc1OCC(N)=O`: 2.84 µM.
The same measure for `COc1ccc(CNn2c(-c3cccs3)nc3ccccc3c2=O)cc1OC`: 7.18 µM; for `Cc1cc(C)c2c(N)c(C(=O)N/N=C/c3cccnc3)sc2n1`: 12.1 µM (inactive).
As for `O=C(Nc1cccc2cccnc12)c1ccc2sc([C@H]3C[C@H](O)[C@@H](CO)O3)nc2c1`, the half-maximal inhibitory concentration (IC50) was 4.33 µM.
The same measure for `Cc1ccc2nsnc2c1S(=O)(=O)N(Cc1ccco1)Cc1cc2cccc(C)c2[nH]c1=O`: 13.2 µM (inactive); for `CCC1(CC)NC(=O)N(CC(=O)OCC(=O)Nc2ccccc2[N+](=O)[O-])C1=O`: 37.3 µM (inactive).
The same measure for `COC(=O)c1ccccc1NC(=O)/C=C/c1cc(OC)c(OC)c(OC)c1`: 10.9 µM (inactive); for `COc1nc(N/N=C/c2cc3c(cc2Br)OCO3)nc(N2CCOCC2)n1`: 11.9 µM (inactive); for `Cc1ccccc1NP(=O)(Oc1ccccc1F)Oc1ccccc1F`: > 79 µM (inactive).
The same measure for `CS(=O)(=O)Nc1cccc(NC(=O)c2cccc3c(-c4cccc(C(N)=O)c4)coc23)c1`: 3.61 µM.
Consider `COc1ccc(C=CC(=O)c2ccc3cc(OC)c(OC)cc3c2)cc1OC`, for which the IC50 is 2.47 µM.
Turning to `COc1cc(-c2cc3nc(NCCOc4ccccc4)ccn3n2)cc(OC)c1OC`, the IC50 was 7.16 µM.
The value for `COc1ccc(Cl)cc1-c1nc(-c2ccc(NC(=O)c3cccs3)cc2)no1` was > 79 µM (inactive).
The value for `O=C(COc1cccc(NC(=O)c2cccc([N+](=O)[O-])c2)c1)c1ccc(F)cc1` was 9.26 µM.
The value for `NC(=O)c1oc2ccccc2c1NC(=O)c1ccco1` was 21.4 µM (inactive).
